In patent publication US12290535B2, “Langerin+ cell targeting” (Max-Planck-Gesellschaft zur Förderung der Wissenschaften …, priority 2018, dated 2025):

How the values were obtained:
Format in all cases: binding
Langerin ECD = molecular target: T1, Langerin ECD (Homo sapiens, UniProt Q9UJ71, V278A); assay: 19F R2-filtered NMR reporter displacement assay (Ki determination); settings: Langerin ECD 50 μM, pH 7.8, 25° C.
T1 construct: residues 148 to 328; TEV site (C); StreptagII (C); made in house; host or cells: E. coli BL21* (DE3)
T1 sequence (Q9UJ71 148-328 V278A): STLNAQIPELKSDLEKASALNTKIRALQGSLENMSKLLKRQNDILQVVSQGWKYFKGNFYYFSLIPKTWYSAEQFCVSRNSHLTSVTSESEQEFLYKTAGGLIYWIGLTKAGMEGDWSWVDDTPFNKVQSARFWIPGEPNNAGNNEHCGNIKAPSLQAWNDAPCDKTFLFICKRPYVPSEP
Experimental: Langerin extracellular domain. Expression and purification were conducted as previously published (Wamhoff, E. C. et al. (19)F Nmr-Guided Design of Glycomimetic Langerin Ligands. ACS Chem Biol, 11, 2407-13 (2016)). Briefly, the trimeric Langerin extracellular domain (ECD) was expressed insolubly in E. coli BL21* (DE3) (Invitrogen). Following enzymatic cell lysis, inclusion bodies were harvested and subsequently solubilized. The sample was centrifuged and the Langerin ECD was refolded overnight via rapid dilution. Next, the sample was dialyzed overnight, centrifuged and purified via mannan-agarose affinity chromatography (Sigma Aldrich). For ^19F R2-filtered NMR and lipid-enzyme-linked lectin assay (Lipid-ELLA) experiments, the buffer was exchanged to 25 mM Tris with 150 mM NaCl and 5 mM CaCl2 at pH 7.8 using 7 kDa size-exclusion desalting columns (Thermo Scientific). For STD NMR experiments, Langerin ECD samples were dialyzed five times for at least 8 h against H2O. Subsequently, the H2O was removed via lyophilization and the residue was stored at −80° C. Prior to STD NMR experiments, the Langerin ECD was dissolved in 25 mM Tris-d11 (Eurisotope) with 100% D2O, 150 mM NaCl and 5 mM CaCl2 at pH 7. The concentration of Langerin ECD was determined via UV spectroscopy (A280, 0.1%=2.45). Purity and monodispersity of Langerin ECD samples were analyzed via SDS PAGE and DLS.
General remarks. ^19F R2-filtered NMR experiments were conducted on a PremiumCompact 600 MHz spectrometer (Agilent). Spectra were processed in MestReNova and data analysis was performed with OriginPro (Mestrelab Research. Mestrenova. 11.0.2. (2016); OriginLab. Originpro. 9.1. (2015)). Experiments with the Langerin ECD were performed at a receptor concentration of 50 μM in 25 mM Tris with 10% D2O, 150 mM NaCl and 5 mM CaCl2 at pH 7.8 and 25° C. Experiments with the DC-SIGN CRD were performed at a receptor concentration of 50 μM in 25 mM HEPES with 10% D2O, 150 mM NaCl and 5 mM CaCl2 at pH 7.0 and 25° C. TFA served as an internal reference at a concentration of 50 μM. Apparent relaxation rates R2,obs for the reporter ligand were determined using the CPMG pulse sequence as previously published (Wamhoff, E. C. et al. (19)F Nmr-Guided Design of Glycomimetic Langerin Ligands. ACS Chem Biol, 11, 2407-13 (2016): Carr, H. Y. & Purcell, E. M. Effects of Diffusion on Free Precession in Nuclear Magnetic Resonance Experiments. Phys Rev, 94, 630-638 (1954); Meiboom, S. & Gill, D. Modified Spin-Echo Method for Measuring Nuclear Relaxation Times. Rev Sci Instrum 29, 688-691 (1958)).
Ki determination. Ki values were determined as previously published for Langerin (Wamhoff, E. C. et al. (19)F NMR-Guided Design of Glycomimetic Langerin Ligands. ACS Chem Biol 11, 2407-13 (2016)). Briefly, titration experiments were conducted at a concentration of 0.1 mM of reporter ligand 24 at five competitor concentrations [I]T. Samples were prepared via serial dilution. For the acids GlcNS, GlcNAc-6-OS and GlcNS-6-OS the pH values were monitored and adjusted to 7.8 if necessary.

DC-SIGN CRD [1] = molecular target: T2, DC-SIGN CRD (Homo sapiens, UniProt Q9NNX6); assay: 19F R2-filtered NMR reporter displacement assay transferred to DC-SIGN; settings: 19F R2-filtered NMR, DC-SIGN CRD 50 μM, pH 7.0, 25° C.
T2 construct: residues 205 to 404; TEV site (C); StreptagII (C); made in house; host or cells: E. coli BL21* (DE3)
T2 sequence (Q9NNX6 250-404): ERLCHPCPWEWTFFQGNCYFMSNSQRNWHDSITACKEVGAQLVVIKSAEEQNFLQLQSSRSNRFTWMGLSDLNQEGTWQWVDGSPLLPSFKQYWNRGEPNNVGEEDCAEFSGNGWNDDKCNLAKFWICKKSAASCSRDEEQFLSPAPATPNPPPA
Experimental: (§1) Langerin and DC-SIGN carbohydrate recognition domain. Expression and purification were conducted as previously published. Briefly, the monomeric ^15N-labeled Langerin and DC-SIGN carbohydrate recognition domains (CRDs) were expressed insolubly in E. coli BL21* (DE3) (Invitrogen). Following enzymatic cell lysis, inclusion bodies were harvested and subsequently solubilized. The sample was centrifuged and the Langerin and DC-SIGN CRDs were refolded overnight via rapid dilution. Next, the sample was dialyzed overnight, centrifuged and purified via StrepTactin affinity chromatography (Iba). After an additional dialysis step overnight, the sample was centrifuged and the buffer was exchanged to 25 mM HEPES with 150 mM NaCl at pH 7.0 using 7 kDa size-exclusion desalting columns (Thermo Scientific) for ^19F R2-filtered and ^15N HSQC NMR experiments. The concentration of Langerin and DC-SIGN CRDs was determined via UV spectroscopy (A280, 0.1%=3.19 and A280, 0.1%=2.98). Purity and monodispersity of Langerin and DC-SIGN CRD samples were analyzed via SDS PAGE and DLS.
(§2) General remarks. ^19F R2-filtered NMR experiments were conducted on a PremiumCompact 600 MHz spectrometer (Agilent). […] Apparent relaxation rates R2,obs for the reporter ligand were determined using the CPMG pulse sequence as previously published (Wamhoff, E. C. et al. (19)F Nmr-Guided Design of Glycomimetic Langerin Ligands. ACS Chem Biol, 11, 2407-13 (2016): Carr, H. Y. & Purcell, E. M. Effects of Diffusion on Free Precession in Nuclear Magnetic Resonance Experiments. Phys Rev, 94, 630-638 (1954); Meiboom, S. & Gill, D. Modified Spin-Echo Method for Measuring Nuclear Relaxation Times. Rev Sci Instrum 29, 688-691 (1958)).
(§3) Assay development for DC-SIGN. […] Briefly, the KD value and the relaxation rate in bound state R2,b were determined at five concentrations [L]T of reporter ligand 24 in three independent titration experiments. […]
(§4) Ki determination. Ki values were determined as previously published for Langerin (Wamhoff, E. C. et al. (19)F NMR-Guided Design of Glycomimetic Langerin Ligands. ACS Chem Biol 11, 2407-13 (2016)). […]

DC-SIGN CRD [2] = assay: as above; settings: Ki Langerin compared to Ki DC-SIGN
Experimental: as §1, §2, §3, §4

Compound: CC(=O)NCCO[C@H]1O[C@H](CO)[C@@H](O)[C@H](O)[C@@H]1O [Man analog 21]
- Ki (Langerin ECD): 10 ± 1 mM
- Ki (DC-SIGN CRD [1]): 2.7 ± 0.3 mM
- specificity for DC-SIGN over Langerin (DC-SIGN CRD [2]): 3.7 fold
